Converted amounts (≈) assume the structure as drawn.
System: mouse fibroblasts (L929)
Experiment: Activity against mouse fibroblasts (L929)
Type: cell-based
Conditions: not given

Compound | Activity against mouse fibroblasts (L929, IC 50/ng/ml)
C/C(=C\c1csc(CO)n1)[C@@H]1C[C@@H]2O[C@]2(C)CCC[C@H](C)[C@H](O)[C@@H](C)C(=O)C(C)(C)[C@@H](O)CC(=O)O1 [Compound 4, Epothilone F, reference compound] | (4) 1.5 ng/ml

Same assay, conditions: L929 mouse fibroblasts

Compound | Activity against mouse fibroblasts (L929, IC 50/ng/ml)
C/C(=C\c1csc(C)n1)[C@@H]1C/C=C/CCC[C@H](C)[C@H](O)[C@@H](C)C(=O)[C@@H](C)[C@@H](O)CC(=O)O1 (relative stereo) [Compound 28, trans-Epothilone C1] | (28) 400 ng/ml
C/C(=C\c1csc(C)n1)[C@@H]1C/C=C/CCC[C@H](C)[C@H](O)[C@@H](C)C(=O)[C@H](C)[C@@H](O)CC(=O)O1 (relative stereo) [Compound 29, trans-Epothilone C2] | (29) 80 ng/ml
C/C(=C\c1csc(C)n1)[C@@H]1C[C@@H]2O[C@@H]2CCC[C@H](C)[C@H](O)[C@@H](C)C(=O)C(C)(C)[C@@H](O)CC(=O)O1 [Compound 1, Epothilone A, reference compound] | (1) 4 ng/ml
C/C(=C\c1csc(C)n1)[C@@H]1C[C@@H]2O[C@]2(C)CCC[C@H](C)[C@H](O)[C@@H](C)C(=O)C(C)(C)[C@@H](O)CC(=O)O1 [Compound 2, Epothilone B, reference compound] | (2) 1-2 ng/ml
C/C(=C\c1csc(CO)n1)[C@@H]1C[C@@H]2O[C@@H]2CCC[C@H](C)[C@H](O)[C@@H](C)C(=O)C(C)(C)[C@@H](O)CC(=O)O1 [Compound 3, Epothilone E, reference compound] | (3) 10 ng/ml
C/C(=C\c1csc(C)n1)[C@@H]1C[C@@H]2O[C@@H]2CCC[C@H](C)[C@H](O)[C@@H](C)C(=O)[C@H](C)[C@@H](O)CC(=O)O1 [Compound 5, Epothilone A1] | (5) 20 ng/ml
C/C(=C\c1csc(C)n1)[C@@H]1C[C@@H]2O[C@@H]2CCC[C@H](C)[C@H](O)[C@@H](C)C(=O)[C@@H](C)[C@@H](O)CC(=O)O1 [Compound 6, Epothilone A2] | (6) 7 ng/ml
Cc1nc(/C=C/[C@@H]2C[C@@H]3O[C@@H]3CCC[C@H](C)[C@H](O)[C@@H](C)C(=O)C(C)(C)[C@@H](O)CC(=O)O2)cs1 [Compound 7, Epothilone A8] | (7) 20 ng/ml
Cc1nc(/C=C(\CO)[C@@H]2C[C@@H]3O[C@@H]3CCC[C@H](C)[C@H](O)[C@@H](C)C(=O)C(C)(C)[C@@H](O)CC(=O)O2)cs1 [Compound 8, Epothilone A9] | (8) 100 ng/ml
C/C(=C\c1coc(C)n1)[C@@H]1C[C@@H]2O[C@]2(C)CCC[C@H](C)[C@H](O)[C@@H](C)C(=O)C(C)(C)[C@@H](O)CC(=O)O1 [Compound 11, Epothilone G2] | (11) 1 ng/ml
C/C(=C\c1coc(C)n1)[C@@H]1C/C=C\CCC[C@H](C)[C@H](O)[C@@H](C)C(=O)C(C)(C)[C@@H](O)CC(=O)O1 [Compound 12, Epothilone H1] | (12) 120 ng/ml
C/C1=C/C[C@@H](/C(C)=C/c2coc(C)n2)OC(=O)C[C@H](O)C(C)(C)C(=O)[C@H](C)[C@@H](O)[C@@H](C)CCC1 [Compound 13, Epothilone H2] | (13) 11 ng/ml
C/C(=C\c1csc(C)n1)[C@@H]1C/C=C\CCC[C@H](C)[C@H](O)[C@@H](C)C(=O)C(C)(C)[C@@H](O)CC(=O)O1 [Compound 14, Epothilone C, reference compound] | (14) 50-100 ng/ml
C/C1=C/C[C@@H](/C(C)=C/c2csc(C)n2)OC(=O)C[C@H](O)C(C)(C)C(=O)[C@H](C)[C@@H](O)[C@@H](C)CCC1 [Compound 15, Epothilone D, reference compound] | (15) 20 ng/ml
C/C(=C\c1csc(C)n1)[C@@H]1C/C=C\CCC[C@H](C)[C@H](O)[C@@H](C)C(=O)[C@H](C)[C@@H](O)CC(=O)O1 [Compound 16, Epothilone C1] | (16) 200 ng/ml
C/C1=C/C[C@@H](/C(C)=C/c2csc(C)n2)OC(=O)C[C@H](O)[C@@H](C)C(=O)[C@H](C)[C@@H](O)[C@@H](C)CCC1 [Compound 17, Epothilone D1] | (17) 20 ng/ml
C/C1=C/C[C@@H](/C(C)=C/c2csc(C)n2)OC(=O)C[C@H](O)[C@H](C)C(=O)[C@H](C)[C@@H](O)[C@@H](C)CCC1 [Compound 19, Epothilone D2] | (19) 12 ng/ml
C/C(=C\c1csc(C)n1)[C@@H]1C/C=C\CCC[C@H](C)[C@H](O)CC(=O)C(C)(C)[C@@H](O)CC(=O)O1 [Compound 20, Epothilone C3] | (20) 1500 ng/ml
C/C(=C\c1csc(C)n1)[C@@H]1C/C=C\CCCC[C@H](O)[C@@H](C)C(=O)C(C)(C)[C@@H](O)CC(=O)O1 [Compound 21, Epothilone C4] | (21) 800 ng/ml
C/C(=C\c1csc(C)n1)[C@@H]1C/C=C\CC/C=C(\C)[C@H](O)[C@@H](C)C(=O)C(C)(C)[C@@H](O)CC(=O)O1 [Compound 22, Epothilone C5] | (22) 1500 ng/ml
Cc1nc(/C=C/[C@@H]2C/C=C\CCC[C@H](C)[C@H](O)[C@@H](C)C(=O)C(C)(C)[C@@H](O)CC(=O)O2)cs1 [Compound 26, Epothilone C8] | (26) 250 ng/ml
Cc1nc(/C=C(\CO)[C@@H]2C/C=C\CCC[C@H](C)[C@H](O)[C@@H](C)C(=O)C(C)(C)[C@@H](O)CC(=O)O2)cs1 [Compound 27, Epothilone C9] | (27) 200 ng/ml
Epothilone D5 [Compound 23] | (23) 200 ng/ml

Same assay, conditions: L929 mouse fibroblasts; read-out: Activity against mouse fibroblasts (L929, IC 50/ng/ml)

Compound | IC50
CCc1nc(/C=C(\C)[C@@H]2C[C@@H]3O[C@]3(C)CCC[C@H](C)[C@H](O)[C@@H](C)C(=O)C(C)(C)[C@@H](O)CC(=O)O2)cs1 [Compound 9, Epothilone B10] | 1.5 ng/mL (≈ 0.00288 µM)
C/C(=C\c1csc(C)n1)[C@@H]1C/C=C\C=C\C[C@H](C)[C@H](O)[C@@H](C)C(=O)C(C)(C)[C@@H](O)CC(=O)O1 [Compound 24, Epothilone C6] | 120 ng/mL (≈ 0.252 µM)
C/C1=C/C[C@@H](/C(C)=C/c2csc(C)n2)OC(=O)C[C@H](O)C(C)C(=O)C(C)CCC1 (stereo partly shown) [Compound 36, Epothilone K] | 180 ng/mL (≈ 0.429 µM)
C/C(=C\c1csc(C)n1)[C@@H](O)C/C=C\CCC[C@H](C)[C@H](O)[C@@H](C)C(=O)C(C)C [Compound 37] | 50 ng/mL (≈ 0.123 µM)

Source: patent publication US6624310B1, “Epothilone minor constituents” (Gesellschaft fuer Biotechnologische Forschung, mbH (GBF), priority 1998, dated 2003)
